Test [1] concerns LPS-induced expression of COX-2, IL-6 and TNFα. Nature of the test: LPS-induced cytokine and COX-2 gene expression in human macrophages (qPCR). It is filed as cell-based. The conditions noted are these: 10 ng/ml LPS, 100 μM SA or 1 μM ac3AESA. The method, then:
Human HeLa cells were grown in T75 flasks in DMEM medium supplemented with penicillin (10,000 IU/mL) streptomycin ([…]), and 10% fetal calf serum. Ptgs2−/− MEFs were derived from Ptgs2−/− E16 mouse embryos, obtained from the mating of Ptgs2+/− mice purchased from Taconic Biosciences. PBMCs were isolated from buffy coats of donor blood (Hospital of Magenta, Milan, Italy) by Ficoll gradient centrifugation (Lymphoprep; AXIS-SHIELD. CD14+ monocytes were isolated by positive immunoselection (CD14 Microbeads; Miltenyi Biotec) according to the manufacturer's instructions, and differentiated into macrophages using X-Vivo medium supplemented with 1% heat inactivated human serum, GM-CSF, and M-CSF.
Total RNAs were isolated using the Illustra RNAspin Mini kit (GE Healthcare), and complementary DNA (cDNA) was obtained by retro-transcription with oligo(dT) primers (Invitrogen, Carlsbad, Calif., USA) and SuperScript II Reverse Transcriptase (Invitrogen) following the manufacturers' instructions. Quantitative real-time PCR was performed using a LightCycler480 (Roche Molecular Diagnostics), in duplicates, using SYBR Green I master mix and the oligonucleotides listed in Table of primers below. The ΔCt method was used for quantification, and the β-actin gene was used for normalization.

Another test has as its target T1, HMGB1 Box A domain (Homo sapiens, UniProt P09429).
T1 construct: (iii) Box A: residues 10-80; hexaHis (TEV-cleavable) (N, cleaved yes); made in house
T1 sequence (P09429 10-80): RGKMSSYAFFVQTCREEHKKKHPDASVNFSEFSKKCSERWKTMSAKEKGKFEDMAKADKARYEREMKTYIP
Briefly: 15N-1H HSQC titration for Kd measurement. It counts as binding. The procedure: (§1) […] Samples were analyzed with and without SA or other candidate inhibitors at 25° C. Chemical shift perturbation studies were carried out using either a Bruker Avance 800 MHz Avance NMR system with 4-mm NMR tubes, or using a Bruker Avance 600 MHz NMR spectrometer equipped with a 1.7 mm micro cryoprobe. 1024 or 2048 complex points were acquired for each of 80 to 200 increments in the ^15N dimension with a recycle delay of 1 s. Each spectrum was typically acquired for 2-8 hrs. Chemical shift assignments were determined using a uniformly ^13C,^15N-enriched HMGB1-ΔC construct at 25° C. via traditional triple-resonance NMR experiments (Biamonti et al., 1994; Moseley et al., 2001) recorded on a Bruker 800 MHz NMR spectrometer equipped with a 5 mm cryoprobe. Disulfide oxidation studies were carried out using the ^15N-^1H SOFAST-HMQC NMR experiment (Schanda & Brutscher, 2005; Schanda et al., 2005; Zandarashvili et al., 2013).
NMR experiments were used to discover that ac3AESA binds to HMGB1 Box A domain of HMGB1 more tightly than SA itself. […] Chemical shift perturbations (CSPs) are defined as Δδppm=[(δHN*6.5)^2+δN^2]^1/2.

Test [2] concerns the target T2, full-length (FL) R24A/K28A HMGB1 (Homo sapiens, UniProt P09429, K28A/R24A).
T2 construct: (i) full length: residues 2-215; made in house
T2 sequence (P09429 2-215 R24A/K28A): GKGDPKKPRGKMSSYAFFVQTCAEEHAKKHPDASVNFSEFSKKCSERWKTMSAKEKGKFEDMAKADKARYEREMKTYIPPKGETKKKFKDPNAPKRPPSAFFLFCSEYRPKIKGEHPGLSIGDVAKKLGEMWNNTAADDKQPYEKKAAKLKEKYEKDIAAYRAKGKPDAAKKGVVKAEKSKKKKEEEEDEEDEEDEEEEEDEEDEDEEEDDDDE
Briefly: 15N-1H HSQC NMR binding to R24A/K28A HMGB1. To be noted: ~0.1 mM protein; 15 mM SA, 3 mM ac3AESA or 3 mM amorfrutin B1. The method, then:
as §1
An alternative explanation is that SA, at low concentrations, affects another factor in vivo, which results indirectly in suppression of HMGB1^RE-induced chemotaxis. […] Therefore, these residues were mutated to Ala to form the double mutant Arg24Ala/Lys28Ala (R24A/K28A).

The next test has as its target T3, AtHMGB3 (Arabidopsis thaliana, UniProt P93047).
T3 sequence (P93047 1-141): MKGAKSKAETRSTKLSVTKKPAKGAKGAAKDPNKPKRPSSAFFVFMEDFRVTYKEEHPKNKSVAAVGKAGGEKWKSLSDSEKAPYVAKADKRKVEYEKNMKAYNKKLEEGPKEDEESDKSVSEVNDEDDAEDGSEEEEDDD
Briefly: Photoaffinity labeling of AtHMGB3 with 4AzSA, competition by SA. To be noted: 50 μM 4AzSA, increasing concentrations of SA.

Test [3] concerns fMLP-induced migration of NIH/3T3 fibroblast cells. Briefly: Chemotaxis assay: fMLP-induced fibroblast migration (specificity control). It is filed as cell-based, mouse. To be noted: 0.1 nM fMLP. The procedure:
Cell migration was assayed using Boyden chambers (Venereau et al., 2012). The downside of PVP-free polycarbonate filters (8 μm pores; Millipore) was coated with 50 μg/ml fibronectin (Sigma). Serum-free DMEM (negative control), DMEM containing 0.1 nM fMLP (positive control; Sigma), or DMEM containing 1 nM HMGB1^RE or HMGB1^SS were placed in the lower chamber, together with different concentrations of SA (Sigma). The mouse 3T3 fibroblast cells were cultured in DMEM media supplemented with 10% CS until 90% confluence, washed twice with PBS to eliminate any floating cells, and harvested with trypsin. 50,000 cells in 200 μL were added to the upper chamber, and cells were left to migrate for 3 h at 37° C. Non-migrating cells were removed with a cotton swab, and migrated cells were fixed with ethanol and stained with Giemsa.
HMGB1^RE acts as a chemo-attractant that mediates migration of several cell types, including monocytes, fibroblasts, mesoangioblasts, smooth muscle cells, and colon cancer cells (Venereau et al., 2012). To determine whether SA alters HMGB 1's chemo-attractant activity, a chemotaxis assay was performed with mouse 3T3 fibroblasts.

Where “and” joins values, the source holds several entries; their conditions need not be identical. Identical values can stand only once. Like-named read-outs stand apart in the source and are kept apart here.

Turning to `O=C(O)c1ccccc1O` [SA, salicylic acid], in test [1], the “effect on LPS-induced expression of cytokine and COX-2 genes” value is recorded as “did not suppress”. Moreover, the Kd is ~90 mM and 90 mM at HMGB1 Box A domain (0.2 mM Box A, pH 7.5, read-out: Kd of binding to HMGB1 Box A (HSQC titration, 1:1 fit)); roughly 10 mM at HMGB1 Box A domain (Box A or full-length HMGB1, read-out: Kd from titrating SA with either Box A or full-length HMGB1); roughly 10 mM on HMGB1 Box A domain (read-out: affinity (Kd) for Box A of HMGB1 as stated in definitions). In addition, in test [2], the “binding to R24A/K28A HMGB1 (CSPs in HSQC)” value is recorded as “does not bind”. In addition, the “inhibition of crosslinking of 4AzSA to AtHMGB3” value on AtHMGB3 was “effectively inhibited”. In test [3], the “effect on fibroblast migration induced by fMLP” value is “did not affect”.
